| SMILES | melting point |
| --- | --- |
| COc1cc(S(=O)(=O)Cl)ccc1Br | 65 to 67 °C |
| Sc1nnnn1C1CC1 | 127 to 129 °C |
| O=C(Nc1ccccc1F)Nc1cccc2c1CCNC2 | 157 to 159 °C |
| Oc1cccc(-n2cccn2)c1 | 131 to 133 °C |
| CN(C)C(=O)COc1cccc(N)c1 | 100 to 102 °C |
| O=C1Nc2ccccc2NC1CO (stereo unspecified) | 140 to 142 °C |
| Cc1ccc(NC(=O)NN)c(Cl)c1 | 132 to 134 °C |
| CNc1ccc2ccccc2n1 | 69 to 71 °C |
| O=C(O)c1ccc(NS(=O)(=O)c2cccc([N+](=O)[O-])c2)cc1 | 267 to 269 °C |
| O=c1oc2cc(O)ccc2c2c1CCC2 | 214 to 216 °C |
| Cc1nc(C(=O)O)nn1-c1ccccc1C(C)C | 175 to 177 °C |
| O=C(O)CCN1C(=O)c2ccc(Br)cc2C1=O | 209 to 211 °C |
| CC(O)C(C)c1ccc2ccccc2n1 (stereo unspecified) | 69 to 71 °C |
| CC(=O)c1ccc(N2CCC(O)CC2)cc1 | 127 to 129 °C |
| Nc1cc(C(F)(F)F)ccc1N1CC(C(F)(F)F)OC1=O (stereo unspecified) | 99 to 101 °C |
| CC(C)N(O)C(=O)C(=O)O | 99 to 101 °C |
| CN(C)C(=O)COc1ccccc1C(=O)O | 127 to 129 °C |
| O=C(O)Cc1csc(-c2ccco2)n1 | 136 to 138 °C |
| Cc1ccc(NS(=O)(=O)c2cc(C(=O)O)ccc2C)cc1 | 55 to 57 °C |
| O=C(O)CSc1nnc(C2CC2)n1Cc1ccccc1 | 194 to 196 °C |
| CCOc1cccc2c1C(=O)NC2=O | 149 to 151 °C |
| C#CC1CCCN(C(=O)OC(C)(C)C)C1 (stereo unspecified) | 67 to 69 °C |
| COc1ccc(O)c(N)c1 | 135 to 140 °C |
| O=C(O)CCc1ncc(-c2ccc(F)cc2)o1 | 144 to 146 °C |

| SMILES | melting point |
| --- | --- |
| COC(=O)c1c(O)c(Cl)cc(Cl)c1Cl | 113 to 115 °C |
| Nc1cnn(CC(=O)NCCO)c1 | 98 to 100 °C |
| Cc1cc(=O)c(C(=O)O)nn1-c1ccccc1C(F)(F)F | 145 to 147 °C |
| CC1(c2cc3ccccc3o2)NC(=O)NC1=O (stereo unspecified) | 203 to 205 °C |
| Cc1nc(-c2cc(C(=O)O)co2)cs1 | 186 to 188 °C |
| CCC(CC)(C(=O)O)c1ccc(Cl)c(Cl)c1 | 94 to 96 °C |
| CNC(=O)COc1ccc(C(=O)O)cc1OC | 221 to 223 °C |
| NS(=O)(=O)C1CCOC1 (stereo unspecified) | 85 to 87 °C |
| O=C(CCl)Nc1ncc(Cc2ccc(F)cc2)s1 | 149 to 151 °C |
| NC1CCc2[nH]ncc2C1 (stereo unspecified) | 168 to 170 °C |
| Cc1cc(Br)ccc1CC(=O)O | 111 to 113 °C |
| CC(C)(C)OC(=O)N1CCC2(CC1)CC2C(=O)NN (stereo unspecified) | 132 to 134 °C |
| CC1=NN(Cc2ccccc2)C(=O)C1 | 175 to 177 °C |
| O=C(O)c1ccc(-c2ccc(Cl)cc2)s1 | 260 to 262 °C |
| O=C(O)c1c(F)ccc(OC(F)F)c1F | 90 to 92 °C |
| O=Cc1cnc(-c2ccccc2)s1 | 87 to 89 °C |
| Cc1cccc(-n2c(C)cc(C(=O)CCl)c2C)c1 | 99 to 101 °C |
| Cc1cc(C=O)c(C)n1CCN1CCOCC1 | 79 to 81 °C |
| NC(=O)CCOc1ccccc1N | 98 to 100 °C |
| OC1(Cc2ccc(F)cc2F)CC2CCC(C1)N2 (stereo unspecified) | 142 to 144 °C |
| O=C(O)CCOc1cccc(Cl)c1 | 85 to 87 °C |
| N#CCCCS(=O)(=O)c1ccc(C(=O)O)cc1 | 195 to 197 °C |
| COC(=O)C1=C(C)NC(C)=C(C(=O)OC)C1C(=O)O | 128 to 130 °C |
| CC(C)c1c(C(=O)O)cnn1-c1cccc(Cl)c1 | 161 to 163 °C |

| SMILES | melting point |
| --- | --- |
| NNC(=O)c1c(Cl)cccc1Cl | 180 to 182 °C |
| CCOC(=O)C(=O)CC(=O)c1ccc(Cl)cc1 | 62 to 64 °C |
| CCOC(=O)c1cnn2cccnc12 | 117 to 119 °C |
| COc1ccc2c(c1)c(C(=O)O)c(C)n2Cc1ccccc1 | 209 to 211 °C |
| Nc1nc2ccc(S(N)(=O)=O)cc2s1 | 259 to 261 °C |
| O=[N+]([O-])c1ccc(OCCO)cc1C(F)(F)F | 62 to 64 °C |
| Nc1cccc(OCc2ccc(Cl)cc2)c1 | 87 to 89 °C |
| CC(=O)NCc1ccc(Br)cc1 | 114 to 116 °C |
| CC(=O)c1ccc(NS(=O)(=O)c2ccc(C)cc2)cc1 | 170 to 172 °C |
| CC(NC(=O)Oc1ccccc1)C(=O)O (stereo unspecified) | 122 to 124 °C |
| NC(=O)CC(NS(=O)(=O)c1cccc(F)c1)C(=O)O (stereo unspecified) | 173 to 175 °C |
| N#CCc1cc(Br)c2c(c1)C=CCO2 | 79 to 81 °C |
| O=C(O)c1csc(-c2ccc(F)cc2)n1 | 196 to 198 °C |
| O=Cc1cn(-c2ccc(F)c(Cl)c2)nn1 | 148 to 150 °C |
| CC1CC(C)CN(c2ccc(C(=O)O)cc2[N+](=O)[O-])C1 (stereo unspecified) | 167 to 169 °C |
| NC(=S)Nc1cccc(Oc2ccccc2)c1 | 119 to 121 °C |
| CC(C)c1ccc(CCC(N)=O)cc1 | 142 to 144 °C |
| CC(C)C(Br)C(=O)NCc1ccccc1F (stereo unspecified) | 104 to 106 °C |
| O=Cc1ccc(-c2ccc(C(=O)O)cc2)o1 | 313 to 315 °C |
| O=c1[nH]c(-c2cccnc2)no1 | 234 to 236 °C |
| O=C(O)C=Cc1ccc(OC(F)(F)C(F)C(F)(F)F)cc1 (stereo unspecified) | 159 to 163 °C |
| CCOC(=O)Cc1ncccc1C(=O)O | 128 to 130 °C |
| O=C(O)Cc1cc2c(ccc3ccccc32)o1 | 166 to 168 °C |

Source: a melting point compilation (Tetko et al.)
